Measurements taken from BindingDB's records for patent US20250313563 (The Broad Institute, 2025).
Several values for one entry are separate records, joined by “and”; a condition that tells them apart may be missing. Identical values can stand only once.

Tests used:
[1] = target: Glycogen synthase kinase-3 beta (Homo sapiens, UniProt P49841); assay: TR-FRET Assay
Outline: (§1)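 Compound was preincubated 30 min in assay buffer before the kinase reaction, which was quenched with EDTA. Phosphorylation was detected by TR-FRET after adding a solution of 40 nM streptavidin-d2 and 2 nM Tb-labelled anti-pSer641 antibody.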

[2] = target: Glycogen synthase kinase-3 alpha (Homo sapiens, UniProt P49840); assay: TR-FRET Assay
Outline: as §1

Chain of Glycogen synthase kinase-3 beta (P49841 whole entry): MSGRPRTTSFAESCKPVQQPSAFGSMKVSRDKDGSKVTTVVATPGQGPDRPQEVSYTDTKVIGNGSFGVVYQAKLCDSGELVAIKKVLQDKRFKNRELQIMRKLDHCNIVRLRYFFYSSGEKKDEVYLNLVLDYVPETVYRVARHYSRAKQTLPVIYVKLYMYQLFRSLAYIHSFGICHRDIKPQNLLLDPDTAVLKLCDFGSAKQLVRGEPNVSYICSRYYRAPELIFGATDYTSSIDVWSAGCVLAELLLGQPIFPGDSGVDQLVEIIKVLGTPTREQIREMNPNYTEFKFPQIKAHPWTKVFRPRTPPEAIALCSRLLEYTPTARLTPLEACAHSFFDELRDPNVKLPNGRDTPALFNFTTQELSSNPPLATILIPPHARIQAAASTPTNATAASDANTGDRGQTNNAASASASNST
Chain of Glycogen synthase kinase-3 alpha (P49840 whole entry): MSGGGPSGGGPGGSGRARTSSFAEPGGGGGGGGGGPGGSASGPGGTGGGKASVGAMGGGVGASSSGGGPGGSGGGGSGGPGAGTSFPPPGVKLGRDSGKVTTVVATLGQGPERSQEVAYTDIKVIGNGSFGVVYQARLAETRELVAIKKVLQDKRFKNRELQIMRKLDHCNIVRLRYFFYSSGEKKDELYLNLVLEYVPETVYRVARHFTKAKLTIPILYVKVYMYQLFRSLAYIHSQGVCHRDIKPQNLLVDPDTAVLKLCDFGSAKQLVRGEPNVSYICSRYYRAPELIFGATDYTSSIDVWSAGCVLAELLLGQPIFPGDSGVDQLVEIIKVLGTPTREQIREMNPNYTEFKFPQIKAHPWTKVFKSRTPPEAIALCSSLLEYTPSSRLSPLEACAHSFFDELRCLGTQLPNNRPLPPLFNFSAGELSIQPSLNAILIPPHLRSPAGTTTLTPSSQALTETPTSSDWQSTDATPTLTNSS

IC50 [1] | IC50 [2] | SMILES
< 100 nM and 1000 to 5000 nM | < 100 nM and 100 to 1000 nM | CC[C@@]1(c2cccc(-c3ccncc3O)c2)C2=CN=NC2NC2=C1C(=O)CC(C)(C)C2 (some centres not stated) [US20250313563, Compound 945724]
> 5000 nM | 1000 to 5000 nM | CC[C@]1(c2cccc(-c3ccncc3O)c2)C2=CN=NC2NC2=C1C(=O)CC(C)(C)C2 (some centres not stated) [US20250313563, Compound 945728]
1000 to 5000 nM | 100 to 1000 nM | CC[C@]1(c2cccc(-c3cncn3C(C)C)c2)C2=CN=NC2NC2=C1C(=O)CC(C)(C)C2 (some centres not stated) [US20250313563, Compound 945729]
100 to 1000 nM | < 100 nM | CCc1cccc(N(C)c2cccc([C@]3(CC)C4=CN=NC4NC4=C3C(=O)CC(C)(C)C4)c2)n1 (some centres not stated) [US20250313563, Compound 945730]
< 100 nM | < 100 nM | CC[C@]1(c2cccc(Oc3cncnc3)c2)C2=CN=NC2NC2=C1C(=O)CC(C)(C)C2 (some centres not stated) [US20250313563, Compound 945933]
100 to 1000 nM | < 100 nM | CCC1(c2cccc(-c3ccnc(CCO)c3)c2)C2=CN=NC2NC2=C1C(=O)CC(C)(C)C2 (configuration not stated) [US20250313563, Compound 945992]
< 100 nM and 1000 to 5000 nM | < 100 nM and 100 to 1000 nM | CC[C@@]1(c2cccc(-c3cc(C)ncc3OC)c2)C2=CN=NC2NC2=C1C(=O)CC(C)(C)C2 (some centres not stated) [US20250313563, Compound 945995]
< 100 nM and 1000 to 5000 nM | < 100 nM and 100 to 1000 nM | CC[C@@]1(c2cccc(-c3ccnc(C)c3OC)c2)C2=CN=NC2NC2=C1C(=O)CC(C)(C)C2 (some centres not stated) [US20250313563, Compound 945997]
> 5000 nM | > 5000 nM | CC[C@]1(c2cccc(-c3cc(C)nn3C)c2)C2=CN=NC2NC2=C1C(=O)CC(C)(C)C2 (some centres not stated) [US20250313563, Compound 946000]
> 5000 nM | > 5000 nM | CC[C@]1(c2cccc(-c3ccnc(C)c3OC)c2)C2=CN=NC2NC2=C1C(=O)CC(C)(C)C2 (some centres not stated) [US20250313563, Compound 946002]
1000 to 5000 nM | 100 to 1000 nM | CC[C@]1(c2cccc(-c3cc[n+]([O-])c(C)c3)c2)C2=CN=NC2NC2=C1C(=O)CC(C)(C)C2 (some centres not stated) [US20250313563, Compound 946055]

Second part, the compound before the results:

SMILES | IC50 [1] | IC50 [2]
CC[C@]1(c2cccc(S(=O)(=O)C3CC3)c2)C2=C(CC(C)(C)CC2=O)NC2N=NC(C(F)(F)F)=C21 (some centres not stated) [US20250313563, Compound 945715] | < 100 nM | < 100 nM
CC1(C)CC(=O)C2=C(C1)NC1=C(CN=N1)[C@]21CCN(S(=O)(=O)c2ccccc2F)C1 [US20250313563, Compound 945718] | < 100 nM and 100 to 1000 nM | < 100 nM
CC1(C)CC(=O)C2=C(C1)NC1=C(CN=N1)[C@@]21CCN(S(=O)(=O)c2ccccc2F)C1 [US20250313563, Compound 945719] | < 100 nM | < 100 nM
CCC1(c2cccc(-c3ccncc3F)c2)C2=C(CC(C)(C)NC2=O)NC2N=NC(C)=C21 (configuration not stated) [US20250313563, Compound 945722] | < 100 nM | < 100 nM
CCC1(c2cccc(N3CCCC3)c2)C2=CN=NC2NC2=C1C(=O)NC(C)(C)C2 (configuration not stated) [US20250313563, Compound 945723] | 1000 to 5000 nM | 100 to 1000 nM
CC[C@]1(c2cccc(-c3cnn(C)c3C)c2)C2=C(CC(C)(C)NC2=O)NC2N=NC(C)=C21 (some centres not stated) [US20250313563, Compound 945727] | > 5000 nM | > 5000 nM
CC[C@@]1(c2cccc(-c3cnn(C)c3C)c2)C2=C(CC(C)(C)NC2=O)NC2N=NC(C)=C21 (some centres not stated) [US20250313563, Compound 945731] | < 100 nM | < 100 nM
CC1(C)CC(=O)C2=C(C1)NC1=C(CN=N1)[C@@]21CCC[C@@H](C#N)C1 [US20250313563, Compound 945906] | 100 to 1000 nM | 100 to 1000 nM
CC[C@]1(c2cccc(C(F)(F)F)c2)C2=CN=NC2NC2=C1C(=O)N[C@H](C(C)(C)C)C2 (some centres not stated) [US20250313563, Compound 945920] | 100 to 1000 nM and 1000 to 5000 nM | < 100 nM and 100 to 1000 nM
CC[C@@]1(c2cccc(C(F)(F)F)c2)C2=CN=NC2NC2=C1C(=O)N[C@H](C(C)(C)C)C2 (some centres not stated) [US20250313563, Compound 945922] | 100 to 1000 nM | < 100 nM
CCC1(c2cccc(-c3cnn4c3CCCC4)c2)C2=C(CC(C)(C)NC2=O)NC2N=NC(C)=C21 (configuration not stated) [US20250313563, Compound 945993] | 100 to 1000 nM | < 100 nM
CCC1(c2cccc(-c3ccnc(C)c3C)c2)C2=CN=NC2NC2=C1C(=O)NC(C)(C)C2 (configuration not stated) [US20250313563, Compound 945994] | 100 to 1000 nM | < 100 nM
CC[C@]1(c2cccc(-c3cn(C)nc3C)c2)C2=C(CC(C)(C)NC2=O)NC2N=NC(C)=C21 (some centres not stated) [US20250313563, Compound 945996] | 1000 to 5000 nM | 100 to 1000 nM
CC[C@@]1(c2cccc(S(=O)(=O)C3CC3)c2)C2=CN=NC2NC2=C1C(=O)NC(C)(C)C2 (some centres not stated) [US20250313563, Compound 945999] | < 100 nM | < 100 nM
CC[C@@]1(c2cccc(-c3cn(C)nc3C)c2)C2=C(CC(C)(C)NC2=O)NC2N=NC(C)=C21 (some centres not stated) [US20250313563, Compound 946001] | < 100 nM and 100 to 1000 nM | < 100 nM
